Four compounds from patent US9426986B2, “Hyperbranched polycarbonates for solubilizing poorly soluble active substances” (BASF SE, priority 2009, dated 2016) can be followed below.

The nature of data set [1]: Solubilization experiments, general procedure 1 (active ingredient content by UV spectroscopy or HPLC). The following applies: pH 7, aqueous buffer, thermodynamic from solid. How it is done:
Approximately 2 g of polymer were weighed out into a 50 mL glass beaker. Then 0.2 g of each active ingredient was weighed into the batch to give a supersaturated solution. […] The mixture was then stirred at room temperature for 72 hours, using a magnetic stirrer. After a rest time of one hour, unsolubilized active ingredient was removed by filtration. The resulting clear or opaque solution was then analyzed for its active ingredient content by means of UV spectroscopy or HPLC.

How the values of data set [2] were obtained:
Approximately 100 mg of polymer were weighed out into a 50 mL glass beaker and dissolved in 9.900 g of distilled water. Then 100 mg of each active ingredient was weighed into the batch to give a supersaturated solution. The mixture was then stirred at room temperature for 24 hours, using a magnetic stirrer. After a rest time of one hour, unsolubilized active ingredient was removed by centrifuging. The resulting clear or opaque solution was then analyzed for its active ingredient content by means of UV spectroscopy.
The solubility was determined as described in procedure 2.

Values after ≈ are worked out from the molar mass of the structure shown. A value given as a limit tells only on which side of the number the result lay.

As to `NC(=O)N1c2ccccc2C=Cc2ccccc21` [Carbamazepine], the concentration in solution in data set [1] (solubility at 72 h) was 140 µg/mL (≈ 593 µM).
Still for that read-out and setting: the result for `Clc1ccccc1C(c1ccccc1)(c1ccccc1)n1ccnc1` [Clotrimazole] reads under 100 µg/mL.
On to `CN1C(C(=O)Nc2ccccn2)=C(O)c2ccccc2S1(=O)=O` [Piroxicam], for which, in data set [1], the concentration in solution (solubility at 72 h) came to 420 µg/mL (≈ 1270 µM).
As to “polyethylene glycol monomethyl ether [PEG monomethyl ether]”, the “Solubility of Fipronil in the presence of polymer” value in data set [2] was 6 µg/mL.
